US12246007B2, “Liquid bendamustine pharmaceutical compositions” (HOSPIRA AUSTRALIA PTY LTD, priority 2018, dated 2025)
Structures can show the parent of a compound that is named as a salt. Where two headings read alike, the source gives them in different places.

Test: Solubility of bendamustine HCl in organic solvents (T0 assay after overnight rolling and filtration)
Format: physicochemical
Procedure: An initial study was performed to assess bendamustine HCl solubility and brief stability in various organic solvents. Amounts of approximately 415.4 mg bendamustine HCl API (active pharmaceutical ingredient) were weighed into 4 mL amber glass vials. 2 mL of each indicated test solvent was added to two of each of the vials. One of each set of two vials containing the same solvent was placed on a sample roller at 2-8° C., and the other vial in each set was placed on a sample roller at laboratory temperature overnight. The following day, the solution from each vial was filtered through a Pall, 0.2 μm Fluorodyne II (Hydrophilic modified PVDF) syringe filter into a fresh 4 mL amber glass vial.

**Q.** For `Cn1c(CCCC(=O)O)nc2cc(N(CCCl)CCCl)ccc21` [Bendamustine HCl, 1H-benzimidazole-2-butanoic acid, 5-[bis(2-chloroethyl)amino]-1-methyl, monohydrochloride], which solubility (2 °C, organic solvent or mixture, thermodynamic from solid, 1-methyl-2-pyrrolidinone, 2-8° C., read-out: Solubility) is on record?
**A.** The solubility was 181 mg/mL.

**Q.** What about the solubility (2 °C, organic solvent or mixture, thermodynamic from solid, Absolute Ethanol, 2-8° C., read-out: Solubility) of the same compound?
**A.** The solubility was 52.1 mg/mL.

**Q.** What about the solubility (2 °C, organic solvent or mixture, thermodynamic from solid, Benzyl alcohol, 2-8° C., read-out: Solubility) of the same compound?
**A.** The solubility was 177 mg/mL.

**Q.** What about the solubility (2 °C, organic solvent or mixture, thermodynamic from solid, Dimethyl acetamide (EP)-Finar, 2-8° C., read-out: Solubility) of the same compound?
**A.** The solubility was 180 mg/mL.

**Q.** And the solubility (2 °C, organic solvent or mixture, thermodynamic from solid, Dimethyl acetamide (EP)-Panreac, 2-8° C., read-out: Solubility)?
**A.** Its solubility is 182 mg/mL.

**Q.** What about the solubility (2 °C, organic solvent or mixture, thermodynamic from solid, Dimethyl acetamide (high purity)-Finar, 2-8° C., read-out: Solubility) of the same compound?
**A.** The solubility was 178 mg/mL.

**Q.** What about the solubility (2 °C, organic solvent or mixture, thermodynamic from solid, Dimethyl sulfoxide, 2-8° C., read-out: Solubility) of the same compound?
**A.** The solubility was 182 mg/mL.

**Q.** What about the solubility (2 °C, organic solvent or mixture, thermodynamic from solid, PEG 300, 2-8° C., read-out: Solubility) of the same compound?
**A.** Its solubility is 60.2 mg/mL.

**Q.** What about the solubility (2 °C, organic solvent or mixture, thermodynamic from solid, PEG 400, 2-8° C., read-out: Solubility) of the same compound?
**A.** The solubility was 32.8 mg/mL.

**Q.** What about the solubility (2 °C, organic solvent or mixture, thermodynamic from solid, Propylene glycol (USP)-Croda, 2-8° C., read-out: Solubility) of the same compound?
**A.** The solubility was 154 mg/mL.

**Q.** And the solubility (2 °C, organic solvent or mixture, thermodynamic from solid, Propylene glycol (USP)-Dow, 2-8° C., read-out: Solubility)?
**A.** Its solubility is 154 mg/mL.

**Q.** What about the solubility (2 °C, organic solvent or mixture, thermodynamic from solid, Propylene glycol (USP)-Merck, 2-8° C., read-out: Solubility) of the same compound?
**A.** Its solubility is 159 mg/mL.

**Q.** What about the solubility (2 °C, organic solvent or mixture, thermodynamic from solid, Propylene glycol, 2-8° C., read-out: bendamustine HCl solubility) of the same compound?
**A.** Its solubility is about 155 mg/mL.

**Q.** What about the solubility (Isopropyl alcohol, 2-8° C.) of the same compound?
**A.** The solubility was 4.5 mg/mL.

**Q.** And the solubility (PEG 300, organic solvent or mixture, thermodynamic from solid, read-out: bendamustine HCl solubility)?
**A.** Its solubility is about 60 mg/mL.

**Q.** And the solubility (PEG 400, organic solvent or mixture, thermodynamic from solid, read-out: bendamustine HCl solubility)?
**A.** Its solubility is about 30 mg/mL.

**Q.** What about the solubility (Propylene glycol (USP)-Croda, 23° C.) of the same compound?
**A.** Its solubility is 170.3 mg/mL.

**Q.** What about the solubility (ethanol, organic solvent or mixture, thermodynamic from solid, read-out: bendamustine HCl solubility) of the same compound?
**A.** Its solubility is 50 to 60 mg/mL.

**Q.** And the solubility (isopropyl alcohol, organic solvent or mixture, thermodynamic from solid, read-out: bendamustine HCl solubility)?
**A.** The solubility was about 5 mg/mL.

**Q.** And the solubility (organic solvent or mixture, thermodynamic from solid, 1-methyl-2-pyrrolidinone, 23° C., read-out: Solubility)?
**A.** Its solubility is 180 mg/mL.

**Q.** And the solubility (organic solvent or mixture, thermodynamic from solid, 1-methyl-2-pyrrolidinone, both temperatures tested, API completely dissolved, read-out: bendamustine HCl solubility)?
**A.** The solubility was over 180 mg/mL.

**Q.** And the solubility (organic solvent or mixture, thermodynamic from solid, Absolute Ethanol, 23° C., read-out: Solubility)?
**A.** Its solubility is 61.1 mg/mL.

**Q.** What about the solubility (organic solvent or mixture, thermodynamic from solid, Benzyl alcohol, 23° C., read-out: Solubility) of the same compound?
**A.** Its solubility is 174 mg/mL.

**Q.** What about the solubility (organic solvent or mixture, thermodynamic from solid, Benzyl alcohol, both temperatures tested, API completely dissolved, read-out: bendamustine HCl solubility) of the same compound?
**A.** The solubility was over 180 mg/mL.

**Q.** And the solubility (organic solvent or mixture, thermodynamic from solid, Dimethyl acetamide (EP)-Finar, 23° C., read-out: Solubility)?
**A.** Its solubility is 174 mg/mL.

**Q.** What about the solubility (organic solvent or mixture, thermodynamic from solid, Dimethyl acetamide (EP)-Panreac, 23° C., read-out: Solubility) of the same compound?
**A.** Its solubility is 180 mg/mL.

**Q.** What about the solubility (organic solvent or mixture, thermodynamic from solid, Dimethyl acetamide (high purity)-Finar, 23° C., read-out: Solubility) of the same compound?
**A.** The solubility was 179 mg/mL.

**Q.** What about the solubility (organic solvent or mixture, thermodynamic from solid, Dimethyl sulfoxide, 23° C., read-out: Solubility) of the same compound?
**A.** The solubility was 181 mg/mL.

**Q.** And the solubility (organic solvent or mixture, thermodynamic from solid, Isopropyl alcohol, 23° C., read-out: Solubility)?
**A.** Its solubility is 6.7 mg/mL.

**Q.** What about the solubility (organic solvent or mixture, thermodynamic from solid, PEG 300, 23° C., read-out: Solubility) of the same compound?
**A.** Its solubility is 64.5 mg/mL.

**Q.** What about the solubility (organic solvent or mixture, thermodynamic from solid, PEG 400, 23° C., read-out: Solubility) of the same compound?
**A.** The solubility was 34.4 mg/mL.

**Q.** What about the solubility (organic solvent or mixture, thermodynamic from solid, Propylene glycol (USP)-Dow, 23° C., read-out: Solubility) of the same compound?
**A.** The solubility was 166 mg/mL.

**Q.** What about the solubility (organic solvent or mixture, thermodynamic from solid, Propylene glycol (USP)-Merck, 23° C., read-out: Solubility) of the same compound?
**A.** Its solubility is 172 mg/mL.

**Q.** And the solubility (organic solvent or mixture, thermodynamic from solid, Propylene glycol, 23° C., read-out: bendamustine HCl solubility)?
**A.** The solubility was about 170 mg/mL.

**Q.** And the solubility (organic solvent or mixture, thermodynamic from solid, dimethyl acetamide, both temperatures tested, API completely dissolved, read-out: bendamustine HCl solubility)?
**A.** The solubility was over 180 mg/mL.

**Q.** What about the solubility (organic solvent or mixture, thermodynamic from solid, dimethyl sulfoxide, both temperatures tested, API completely dissolved, read-out: bendamustine HCl solubility) of the same compound?
**A.** Its solubility is over 180 mg/mL.
